From patent US10138212B2, “Aminoquinazoline compounds as A2A antagonist” (Merck Sharp & Dohme Corp., priority 2015, dated 2018) come the findings set out here.

Assay [1] concerns the target human A2a receptor (Homo sapiens (Human), UniProt P29274). The experiment in a line: A2a competition binding assay using Scintillation Proximity technology. On the procedure: (§1) Binding affinities of compounds of the invention for the human A2a receptor were determined in a competition binding assay using Scintillation Proximity technology. Thus, 1* μg, or preferably 0.25 μg of membranes from HEK293 cells expressing the human A2a receptor were incubated with a compound of the invention at concentrations ranging from 3000 nM to 0.15 nM in a reaction mixture containing also 0.5 nM of a tritiated form of 5-amino-7-[2-phenethyl]-2-(furan-2-yl)-7H-pyrazolo[4,3-e][1,2,4]triazolo[1,5-c]pyrimidine (the tritiated compound) and 25 μg of wheat germ agglutin-coated yttrium silicate SPA beads for one hour at room temperature with agitation. The beads were then allowed to settle to the bottom of the wells for 1 hr, after which the membrane-associated radioactivity was determined by scintillation counting in a TopCount microplate reader. Ki values were determined using the Cheng-Prusoff equation.
HEK293 cells expressing the human, rat, dog or monkey adenosine 2a receptor (Purchased from Perkin-Elmer # RBHA2AM400UA).
The Tritiated compound was prepared in-house by MRL Radiochemistry according to published methods.
Wheat germ agglutinin-coated yttrium silicate SPA beads (GE Healthcare #RPNQ0023). Dilute to 25 mg/ml in assay buffer.
Assay Buffer was prepared in house: Dulbecco's calcium and magnesium free phosphate buffered saline+10 mM MgCl2
Adenosine deaminase from calf intestine, 10 mg/2 ml (Roche #10 102 105 001).
A2a antagonist standard (9-chloro-1-(2-furanyl)-[1,2,4]triazolo1,5-c]quinazolin-5-amine from Tocris Bioscience)
Make eight 1:3 serial dilutions in 100% DMSO from a 3 mM compound stock
Transfer 50 nl of compound into a 384-well OptiPlate (Perkin Elmer).
Typically, final concentrations of compound used in the assay ranged from 3000 nM to 0.152 nM.
Dilute a solution of the Tritiated compound to 1.25 nM in assay buffer. This is a 2.5× solution. The final concentration in the assay is 0.5 nM. Calculate the concentration by counting two 5 μl aliquots.
Use *1 ug or preferrably 0.25 ug of membrane/well. Dilute membranes to 9.7 μg/ml in assay buffer. Treat with 20 ug/ml adenosine deaminase (ADA) for 15 minutes at room temperature to degrade endogenous adenosine.
Use 25 μg/well wheat germ agglutinin-coated yttrium silicate SPA beads.
Mix ADA-treated membranes and SPA beads together for 30 min prior to assay.
To the Perkin-Elmer Optiplate-384 containing the compound titration add 20 μl of 2.5× solution of the Tritiated compound and 30 μl of the membrane-bead mixture. Incubate for one hour at room temperature with agitation.
Include total binding (assay buffer+1% DMSO) and non-specific binding (CGS15943, 1 μM) wells.
Allow the beads to settle for one hour.
A curve fitting program (i.e., Prism, Activity Base, Chemcart) is used to determine the EC50. The Ki value is calculated using the Cheng-Prusoff equation. Ki=EC50/(1+(radioligand concentration/Kd))
Using the foregoing assay method, the Ki results were obtained using the compounds of the invention described in Tables IIIa, IIIb, and IV. Each example compound tested is reported in the following format: Example number: A2a Ki reported in nM. Thus, for example, the compound Ex-1 was determined to have an Ki using the above-described assay and calculations, of 10.0 nM.
Background: SPA uses beads or plates that emit light when radiolabelled molecules are held near them.

Assay [2] addresses human A1 receptor (Homo sapiens (Human), UniProt P30542). The assay is described as follows: A1 competition binding assay using Scintillation Proximity technology; selectivity = A1 binding Ki / A2a binding Ki. The following applies: A1 binding Ki divided by A2a binding Ki. The method, then:
as §1, with “A1” for “A2a”, “5” for “1* μg, or preferably 0.25 μg”, “CHO-K1” for “HEK293”, “0.7” for “0.5”, “8-Cyclopentyl-1,3-dipropylxanthine” for “5-amino-7-[2-phenethyl]-2-(furan-2-yl)-7H-pyrazolo[4,3-e][1,2,4]triazolo[1,5-c]pyrimidine”, “in a similar fashion described with A2a binding.” for “using the Cheng-Prusoff equation.”
• Cells expressing the human, rat, dog or monkey adenosine 1 receptor (Purchased from Perkin-Elmer # ES-010-M400UA • [^3H]DPCPX (purchased from Perkin-Elmer NET-974, 8-cyclopentyl-1,3-dipropylxanthine, [dipropyl-2,3-^3H(N)]. • Wheatgerm agglutinin-coated yttrium silicate SPA beads (Purchased from GE Healthcare #RPNQ0023). Dilute to 25 mg/ml in assay buffer. Store at 4° C. • Assay Buffer—Dulbecco's phosphate buffered saline without calcium and without magnesium+10 mM MgCl2 • Adenosine deaminase from calf intestine, 10 mg/2 ml (Roche #10 102 105 001). • DMSO • DPCPX (A1 antagonist) from Tocris Bioscience Compound Dilution • Dilute compounds to 1 mM in 100% DMSO
Make serial dilutions as necessary (i.e., 1:10, 1:3) in 100% DMSO.
Dilute 1:20 into assay buffer (i.e. 3 ul into 57 ul buffer). This is a 5× solution in 5% DMSO.
• Dilute [^3H]DPCPX to 1.75 nM in assay buffer. This is a 2.5× solution. The final concentration in the assay is 0.7 nM. Calculate the concentration by counting two 5 ul aliquots. Membrane Preparation • Use 5 ug of membrane/well. Dilute membranes to 250 ug/ml in assay buffer. Treat with 20 ug/ml adenosine deaminase (ADA) for 15 minutes at room temperature to degrade endogenous adenosine. Membrane-Bead Mixture • Use 25 ug/well wheatgerm agglutinin-coated yttrium silicate SPA beads • Mix ADA-treated membranes and SPA beads together for 30 min prior to assay. Assay Assembly • Add in order to a Perkin-Elmer Optiplate-384: 10 ul of 5× compound, 20 ul of 2.5× [^3H]DPCPX, 20 ul membrane-bead mixture. Incubate for one hour at room temperature with agitation. • Include total binding (assay buffer+1% DMSO) and non-specific binding (DPCPX, 1 uM) wells. Counting and Calculations

Where [3] appears, read: 0.25 μg of membranes from HEK293 cells expressing the human A2a receptor.
[4] abbreviates: * assay run with 1 μg of membranes versus 0.25 μg, HEK293 cells expressing the human A2a receptor.

Chain of human A2a receptor (P29274 whole entry): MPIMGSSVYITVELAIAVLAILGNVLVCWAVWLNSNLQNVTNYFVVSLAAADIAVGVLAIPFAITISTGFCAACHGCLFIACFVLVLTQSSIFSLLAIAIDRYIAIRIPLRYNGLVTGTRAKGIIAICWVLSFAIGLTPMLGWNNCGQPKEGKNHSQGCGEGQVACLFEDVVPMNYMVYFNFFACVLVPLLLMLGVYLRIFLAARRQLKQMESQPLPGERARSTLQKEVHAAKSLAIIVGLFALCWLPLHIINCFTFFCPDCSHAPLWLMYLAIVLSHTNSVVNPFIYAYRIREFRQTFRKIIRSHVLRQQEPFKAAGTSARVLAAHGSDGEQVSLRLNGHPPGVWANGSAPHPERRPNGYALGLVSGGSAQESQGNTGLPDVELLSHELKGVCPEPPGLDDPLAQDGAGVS
Chain of human A1 receptor (P30542 whole entry): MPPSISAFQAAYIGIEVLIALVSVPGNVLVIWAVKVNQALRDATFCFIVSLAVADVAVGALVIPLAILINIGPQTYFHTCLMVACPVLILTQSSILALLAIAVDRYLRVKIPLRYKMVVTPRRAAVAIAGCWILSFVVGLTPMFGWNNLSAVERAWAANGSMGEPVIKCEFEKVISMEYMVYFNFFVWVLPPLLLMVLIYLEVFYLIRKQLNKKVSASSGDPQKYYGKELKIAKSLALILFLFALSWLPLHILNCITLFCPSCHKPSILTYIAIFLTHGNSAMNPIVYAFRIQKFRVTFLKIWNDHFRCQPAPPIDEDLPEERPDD

With `Nc1nc(C(=O)NCc2cccc3c2NCCC3)c2cccc(F)c2n1` [Example 90], affinity in assay [1] (setting [3]) was put at a Ki of 3 nM.
Turning to `COc1cccnc1CNC(=O)c1nc(N)nc2c(OC)cccc12` [Example 23, 2-amino-8-methoxy-N-[(3-methoxy-2-pyridyl)methyl]quinazoline-4-carboxamide], in assay [1] (setting [3]), the Ki was 3 nM. In addition, the “A2a selectivity (A2a A1 binding selectivity)” value (“A2a selectivity” for short) in assay [2] was 110.
For `COc1cccc2c(C(=O)NCc3cccn(C)c3=O)nc(N)nc12` [Example 61, 2-amino-8-methoxy-N-[(1-methyl-2-oxo-3-pyridyl)methyl]quinazoline-4-carboxamide] the same measures were 0.9 nM and 100.
For `COc1cccc2c(C(=O)N[C@@H](CO)c3ccccc3)nc(N)nc12` [Example 36, 2-amino-N-[(1R)-2-hydroxy-1-phenyl-ethyl]-8-methoxy-quinazoline-4-carboxamide] the same measures were 2.6 nM and 114.
The like results for `COc1cccc2c(C(=O)NCc3cccc(C)c3)nc(N)nc12` [Example 17, 2-amino-8-methoxy-N-(m-tolylmethyl)quinazoline-4-carboxamide] were, in that order, 0.4 nM and 184.
`CC(C)c1nc(CNC(=O)c2nc(N)nc3c(F)cccc23)cs1` [Example 82, 2-amino-8-fluoro-N-[(2-isopropylthiazol-4-yl)methyl]quinazoline-4-carboxamide] displayed a Ki in assay [1] (setting [3]) of 0.6 nM. The “A2a selectivity” value in assay [2] worked out at 56.
`COc1cccc2c(C(=O)NCc3cccc4ccncc34)nc(N)nc12` [Example 16, 2-amino-N-(8-isoquinolylmethyl)-8-methoxy-quinazoline-4-carboxamide]: affinity in assay [1] (setting [3]) was put at a Ki of 0.3 nM. The “A2a selectivity” value in assay [2] was determined as 114.
In assay [1] (setting [3]), `COc1cccc2c(C(=O)NCc3nc(C)ccc3F)nc(N)nc12` [Example 20, 2-amino-N-[(3-fluoro-6-methyl-2-pyridyl)methyl]-8-methoxy-quinazoline-4-carboxamide] came in with a Ki of 0.5 nM. Moreover, in assay [2], the “A2a selectivity” value was found to be 89.
For `Nc1nc(C(=O)NCc2cccc(Cc3ccncc3)n2)c2cccc(F)c2n1` [Example 112, 2-amino-8-fluoro-N-[[6-(4-pyridylmethyl)-2-pyridyl]methyl]quinazoline-4-carboxamide] the same measures were 1.6 nM and 31.
The like results for `Nc1nc(C(=O)NCc2cccc(-c3ccccn3)n2)c2cccc(F)c2n1` [Example 63, 2-amino-8-fluoro-N-[[6-(2-pyridyl)-2-pyridyl]methyl]quinazoline-4-carboxamide] were, in that order, 0.8 nM and 59.
In assay [1] (setting [3]), `COc1cccc2c(C(=O)NCc3ccc(F)cn3)nc(N)nc12` [Example 26, 2-amino-N-[(5-fluoro-2-pyridyl)methyl]-8-methoxy-quinazoline-4-carboxamide] came in with an inhibition constant (Ki) of 6.6 nM. Moreover, in assay [2], the “A2a selectivity” value is listed as 89.
In assay [1] (setting [4]), `[2H]C([2H])(NC(=O)c1nc(N)nc2c(OC)cccc12)c1cccc(C([2H])([2H])c2cncc(-c3ncco3)c2)n1` [Example 108, 2-amino-N-[dideuterio-[6-[dideuterio-(5-oxazol-2-yl-3-pyridyl)methyl]-2-pyridyl]methyl]-8-methoxy-quinazoline-4-carboxamide] displayed a Ki of 2.1 nM. Further, the “A2a selectivity” value in assay [2] was determined as 77.
Molecule `Nc1nc(C(=O)NCc2ncccc2-c2ncccn2)c2cccc(F)c2n1` [Example 67, 2-amino-8-fluoro-N-[(3-pyrimidin-2-yl-2-pyridyl)methyl]quinazoline-4-carboxamide] came in with an inhibition constant (Ki) in assay [1] (setting [3]) of 4 nM. In assay [2], the “A2a selectivity” value was 297.
The like results for `COc1cccc2c(C(=O)NCc3cccc(C4CC4)n3)nc(N)nc12` [Example 7, 2-amino-N-[(6-cyclopropyl-2-pyridyl)methyl]-8-methoxy-quinazoline-4-carboxamide] were, in that order, 0.3 nM and 169.
For `[2H]C([2H])(NC(=O)c1nc(N)nc2c(OC)cccc12)c1cccc(N2CCN(c3ccc(OCCOC)cc3)CC2)n1` [Example 60, 2-amino-N-[dideuterio-[6-[4-[4-(2-methoxyethoxy)phenyl]piperazin-1-yl]-2-pyridyl]methyl]-8-methoxy-quinazoline-4-carboxamide], the Ki in assay [1] (setting [4]) was 4.3 nM. The “A2a selectivity” value in assay [2] came to 67.
The molecule `Nc1nc(C(=O)NCc2nccc3ccccc23)c2cccc(F)c2n1` [Example 89, 2-amino-8-fluoro-N-(isoquinolin-1-ylmethyl)quinazoline-4-carboxamide] had a Ki in assay [1] (setting [4]) of 6.6 nM. Also, the “A2a selectivity” value in assay [2] was 13.
Molecule `Cc1cccn2cc(CNC(=O)c3nc(N)nc4c(F)cccc34)nc12` [Example 81, 2-amino-8-fluoro-N-[(8-methylimidazo[1,2-a]pyridin-2-yl)methyl]quinazoline-4-carboxamide] showed an inhibition constant Ki in assay [1] (setting [3]) of 6.9 nM. Further, in assay [2], the “A2a selectivity” value is 12.
Molecule `COc1cccc2c(C(=O)NCc3ncccc3C)nc(N)nc12` [Example 24, 2-amino-8-methoxy-N-[(3-methyl-2-pyridyl)methyl]quinazoline-4-carboxamide] displayed a Ki in assay [1] (setting [3]) of 0.9 nM. In addition, in assay [2], the “A2a selectivity” value amounted to 180.
Consider `[2H]C([2H])(NC(=O)c1nc(N)nc2c(F)cccc12)c1cccc(Oc2ccc(OCCOC)cc2)n1` [Example 59, 2-amino-N-[dideuterio-[6-[4-(2-methoxyethoxy)phenoxy]-2-pyridyl]methyl]-8-fluoro-quinazoline-4-carboxamide], for which, in assay [1] (setting [4]), the affinity corresponds to a Ki of 3.7 nM. Besides, the “A2a selectivity” value in assay [2] came out at 32.
As for `COc1cccc2c(C(=O)NCc3cccc(C4(O)CCC4)n3)nc(N)nc12` [Example 4, 2-amino-N-[[6-(1-hydroxycyclobutyl)-2-pyridyl]methyl]-8-methoxy-quinazoline-4-carboxamide], in assay [1] (setting [3]), the Ki turned out to be 0.6 nM. Also, the “A2a selectivity” value in assay [2] came to 314.

Usually Ki stands for the dissociation constant of the complex between target and ligand, obtained from inhibition or displacement.
